Data taken from patent publication US7074595B2, “General means of labeling protein by using wheat embryo cell-free protein synthesis system” (CellFree Sciences Co., Ltd., priority 2000, dated 2006).

Legend:
Type in all cases: biochemical
Settings in all cases: NADPH
[1] = molecular target: T1, dihydrofolate reductase (DHFR), natural-type methionine-containing (Met-DHFR) (Escherichia coli, UniProt P0ABQ4); experiment: enzymatic properties of DHFR (Table 1): Michaelis constant and maximum velocity, Met-DHFR
T1 construct: made in house; host or cells: wheat embryo extract cell-free protein synthesis (dialysis type)
T1 sequence (P0ABQ4 1-159): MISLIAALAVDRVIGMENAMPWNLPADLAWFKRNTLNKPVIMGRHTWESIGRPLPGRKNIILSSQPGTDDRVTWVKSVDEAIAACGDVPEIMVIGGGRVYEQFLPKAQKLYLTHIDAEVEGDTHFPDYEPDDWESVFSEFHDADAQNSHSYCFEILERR
Protocol: (§1) Purification of GFP and measurement of its activity by analysis of fluorescence spectrum using a fluorospectrophotometer were carried out in accordance with a method by Deschamps, et al. [Deschamps, J. R. et al., (1995) Protein Expression and Purification, 6, 555–558]. In the measurement of fluorescence spectrum, a fluorophotometer of type RF-5000 by Shimadzu was used. DHFR activity was measured by a method of Stanley, et al. [Methods. Enzymol. 18, 195–199 (1971)].
(§2) Then enzymatic properties of the selenomethionine-containing proteins purified as such were investigated biochemically. Fluorescence emission spectrum of a certain concentration of the purified GFP preparation shown in FIG. 2 excited at the wavelength of 395 nm was measured within a range of 410 nm to 600 nm and the result is shown in FIG. 3. As will be apparent from FIG. 3, there is no difference between the fluorescence emission spectra of GFP [(A) in FIG. 3] and selenomethionine GFP [(B) in FIG. 3]. Thus, the conclusion is that the change in GFP activity by substituting methionine residue with selenomethionine is not higher than the usual measurement sensitivity. […]

[2] = molecular target: T2, dihydrofolate reductase (DHFR), Natural-Type DHFR (Escherichia coli, UniProt P0ABQ4); experiment: enzymatic properties of DHFR (Table 2): Michaelis constant and maximum velocity, Natural-Type DHFR
T2 construct: made in house; host or cells: wheat embryo extract cell-free protein synthesis (dialysis type)
T2 sequence (P0ABQ4 1-159): T1 sequence (P0ABQ4 1-159)
Protocol: as §1
Then enzymatic properties of the purified heavy hydrogen-labeled DHFR were biochemically investigated by the same manner as in Example 1. As will be apparent from Table 2, both Vmax and Michaelis constant (Km) to NADPH which are parameters for enzymatic chemical property of natural-type DHFR and heavy hydrogen-labeled DHFR show no difference between both enzymes. Thus, it became clear that DHFR comprising heavy hydrogen-labeled amino acids maintained nearly the same enzymatic activity as the natural-type DHFR.

[3] = molecular target: T3, dihydrofolate reductase (DHFR), Heavy Hydrogen-Labeled DHFR (20 kinds of heavy hydrogen-labeled L-amino acids) (Escherichia coli, UniProt P0ABQ4); experiment: enzymatic properties of DHFR (Table 2): Michaelis constant and maximum velocity, Heavy Hydrogen-Labeled DHFR
T3 construct: made in house; host or cells: wheat embryo extract cell-free protein synthesis (dialysis type)
T3 sequence (P0ABQ4 1-159): T1 sequence (P0ABQ4 1-159)
Protocol: as §1
With regard to the wheat embryo, that being contaminated with substantially no endosperm component prepared by the method mentioned in Example 1 was used. Preparation of an extract from wheat embryo was carried out by the exactly same method as Example 1 except that the solution for extraction and the solution used for gel filtration contained 20 kinds of heavy hydrogen-labeled L-amino acids instead of 20 kinds of selenomethionine-containing L-amino acids. Concentration of the prepared extract was adjusted to 170˜250 A260 nm (A260/A280=1.5).
Although the composition of the protein synthesis reaction solution is as same as that described in Example 1, it contains 20 kinds of heavy hydrogen-labeled L-amino acids instead of 20 kinds of selenomethionine-containing L-amino acids.
Then enzymatic properties of the purified heavy hydrogen-labeled DHFR were biochemically investigated by the same manner as in Example 1. […]

[4] = molecular target: T4, dihydrofolate reductase (DHFR), selenomethionine-containing (SeMet-DHFR) (Escherichia coli, UniProt P0ABQ4); experiment: enzymatic properties of DHFR (Table 1): Michaelis constant and maximum velocity, SeMet-DHFR
T4 construct: made in house; host or cells: wheat embryo extract cell-free protein synthesis (dialysis type)
T4 sequence (P0ABQ4 1-159): T1 sequence (P0ABQ4 1-159)
Protocol: as §1, §2

## NC(=O)C1=CN([C@@H]2O[C@H](COP(=O)(O)OP(=O)(O)OC[C@H]3O[C@@H](n4cnc5c(N)ncnc54)[C@H](OP(=O)(O)O)[C@@H]3O)[C@@H](O)[C@H]2O)C=CC1 [NADPH, nicotinamide adenine dinucleotide phosphate (NADPH) of a reduced type]
[1]
  maximum velocity Vmax: 0.143 A560 nm/μg/min
[2]
  Vmax: 0.127 A560 nm/μg/min
[3]
  Vmax: 0.261 A560 nm/μg/min
[4]
  maximum velocity Vmax: 0.137 A560 nm/μg/min
